Assay results as given in ChEMBL document CHEMBL1153280, “Synthesis and in vitro activity of dicationic bis-benzimidazoles as a new class of anti-MRSA and anti-VRE agents” (2009).
Converted amounts (≈) assume the structure as drawn.

Assays:
Assay type in all cases: functional
[1] = tested on: Staphylococcus aureus; experiment: Antibacterial activity against multidrug-resistant Staphylococcus aureus BAA-39 by NCCLS method
[2] = tested on: Staphylococcus aureus; experiment: Antibacterial activity against Staphylococcus aureus ATCC 29213 by NCCLS method
[3] = tested on: Clostridium perfringens; experiment: Antibacterial activity against Clostridium perfringens ATCC 10388 by NCCLS method
[4] = tested on: Bacteroides fragilis; experiment: Antibacterial activity against Bacteroides fragilis ATCC 23745 by NCCLS method
[5] = tested on: Bacillus subtilis; experiment: Antibacterial activity against Bacillus subtilis ATCC 23857 by NCCLS method
[6] = tested on: Enterococcus faecalis; experiment: Antibacterial activity against vancomycin-resistant Enterococcus faecalis ATCC 51575 by NCCLS method
[7] = tested on: Staphylococcus epidermidis; experiment: Antibacterial activity against Staphylococcus epidermidis ATCC 12228 by NCCLS method
[8] = tested on: Bacillus cereus; experiment: Antibacterial activity against Bacillus cereus ATCC 11778 by NCCLS method
[9] = tested on: Staphylococcus epidermidis; experiment: Antibacterial activity against methicillin-resistant Staphylococcus epidermidis ATCC 51625 by NCCLS method
[10] = tested on: Staphylococcus aureus; experiment: Antibacterial activity against methicillin-resistant Staphylococcus aureus ATCC 33591 by NCCLS method
[11] = tested on: Streptococcus pneumoniae; experiment: Antibacterial activity against Streptococcus pneumoniae ATCC 6301 by NCCLS method
[12] = tested on: Enterococcus faecium; experiment: Antibacterial activity against vancomycin-resistant Enterococcus faecium ATCC 700221 by NCCLS method

Compound	MIC [1] [µg/mL]	MIC [2] [µg/mL]	MIC [3] [µg/mL]	MIC [4] [µg/mL]	MIC [5] [µg/mL]	MIC [6] [µg/mL]	MIC [7] [µg/mL]	MIC [8] [µg/mL]	MIC [9] [µg/mL]	MIC [10] [µg/mL]	MIC [11] [µg/mL]	MIC [12] [µg/mL]
N=C(c1ccc2[nH]c(-c3ccc(CCc4ccc(-c5nc6cc(C(=N)N7CCCC7)ccc6[nH]5)cc4)cc3)nc2c1)N1CCCC1	0.5 (≈ 0.824 µM)	0.5 (≈ 0.824 µM)	2 (≈ 3.3 µM)	2 (≈ 3.3 µM)	2 (≈ 3.3 µM)	16 (≈ 26.4 µM)	0.25 (≈ 0.412 µM)	1 (≈ 1.65 µM)	0.25 (≈ 0.412 µM)	0.25 (≈ 0.412 µM)	> 32	2 (≈ 3.3 µM)
CC(C)NC(=N)c1ccc(CCc2ccc(-c3nc4cc(C(=N)NC(C)C)ccc4[nH]3)cc2)cc1	8 (≈ 17.1 µM)	4 (≈ 8.57 µM)	> 32	32 (≈ 68.6 µM)	1 (≈ 2.14 µM)	2 (≈ 4.29 µM)	0.25 (≈ 0.536 µM)	0.5 (≈ 1.07 µM)	1 (≈ 2.14 µM)	4 (≈ 8.57 µM)	0.12 (≈ 0.257 µM)	1 (≈ 2.14 µM)
CC(C)NC(=N)c1ccc2[nH]c(-c3ccc(CCc4ccc(-c5nc6cc(C(=N)NC(C)C)ccc6[nH]5)cc4)cc3)nc2c1	0.5 (≈ 0.858 µM)	0.25 (≈ 0.429 µM)	0.25 (≈ 0.429 µM)	0.5 (≈ 0.858 µM)	0.12 (≈ 0.206 µM)	0.25 (≈ 0.429 µM)	< 0.06	0.12 (≈ 0.206 µM)	0.125 (≈ 0.214 µM)	0.25 (≈ 0.429 µM)	< 0.06	0.12 (≈ 0.206 µM)
N=C(N)c1ccc2[nH]c(-c3ccc(CCc4ccc(-c5nc6cc(C(=N)N)ccc6[nH]5)cc4)cc3)nc2c1	> 32	> 32	> 32	> 32	32 (≈ 64.2 µM)	> 32	4 (≈ 8.02 µM)	> 32	32 (≈ 64.2 µM)	> 32	> 32	32 (≈ 64.2 µM)
CCCCNC(=N)c1ccc2[nH]c(-c3ccc(CCc4ccc(-c5nc6cc(C(=N)NCCCC)ccc6[nH]5)cc4)cc3)nc2c1	4 (≈ 6.55 µM)	4 (≈ 6.55 µM)	0.5 (≈ 0.819 µM)	32 (≈ 52.4 µM)	1 (≈ 1.64 µM)	32 (≈ 52.4 µM)	0.25 (≈ 0.409 µM)	4 (≈ 6.55 µM)	0.5 (≈ 0.819 µM)	2 (≈ 3.27 µM)	1 (≈ 1.64 µM)	2 (≈ 3.27 µM)
CC(C)NC(=N)c1ccc2[nH]c(-c3ccc(CCc4cc(-c5nc6cc(C(=N)NC(C)C)ccc6[nH]5)cs4)cc3)nc2c1	1 (≈ 1.7 µM)	1 (≈ 1.7 µM)	0.25 (≈ 0.425 µM)	1 (≈ 1.7 µM)	0.5 (≈ 0.849 µM)	1 (≈ 1.7 µM)	–	0.25 (≈ 0.425 µM)	0.25 (≈ 0.425 µM)	0.25 (≈ 0.425 µM)	0.12 (≈ 0.204 µM)	0.25 (≈ 0.425 µM)
CN[C@H](CC(C)C)C(=O)N[C@H]1C(=O)N[C@@H](CC(N)=O)C(=O)N[C@H]2C(=O)N[C@H]3C(=O)N[C@H](C(=O)N[C@H](C(=O)O)c4cc(O)cc(O)c4-c4cc3ccc4O)[C@H](O)c3ccc(c(Cl)c3)Oc3cc2cc(c3O[C@@H]2O[C@H](CO)[C@@H](O)[C@H](O)[C@H]2O[C@H]2C[C@](C)(N)[C@H](O)[C@H](C)O2)Oc2ccc(cc2Cl)[C@H]1O [VANCOMYCIN]	–	–	0.12 (≈ 0.0828 µM)	4 (≈ 2.76 µM)	0.12 (≈ 0.0828 µM)	> 64	–	–	–	–	1 (≈ 0.69 µM)	> 64
CC1(C)S[C@@H]2[C@H](NC(=O)Cc3ccccc3)C(=O)N2[C@H]1C(=O)O [PENICILLIN G]	> 32	1 (≈ 2.99 µM)	≤ 0.06	4 (≈ 12 µM)	< 0.06	4 (≈ 12 µM)	32 (≈ 95.7 µM)	> 4	32 (≈ 95.7 µM)	> 32	< 0.06	> 32
N=C(NC1CC1)c1ccc2[nH]c(-c3ccc(CCc4ccc(-c5nc6cc(C(=N)NC7CC7)ccc6[nH]5)cc4)cc3)nc2c1	16 (≈ 27.6 µM)	8 (≈ 13.8 µM)	1 (≈ 1.73 µM)	32 (≈ 55.3 µM)	1 (≈ 1.73 µM)	32 (≈ 55.3 µM)	0.12 (≈ 0.207 µM)	0.25 (≈ 0.432 µM)	0.25 (≈ 0.432 µM)	8 (≈ 13.8 µM)	< 0.06	1 (≈ 1.73 µM)
COc1ccc(CCc2ccc(-c3nc4ccc(C(=N)NC(C)C)cc4[nH]3)cc2)cc1	8 (≈ 19.4 µM)	4 (≈ 9.7 µM)	16 (≈ 38.8 µM)	> 32	4 (≈ 9.7 µM)	32 (≈ 77.6 µM)	4 (≈ 9.7 µM)	4 (≈ 9.7 µM)	4 (≈ 9.7 µM)	4 (≈ 9.7 µM)	8 (≈ 19.4 µM)	8 (≈ 19.4 µM)
O=C(O)c1cn(C2CC2)c2cc(N3CCNCC3)c(F)cc2c1=O [CIPROFLOXACIN]	8 (≈ 24.1 µM)	0.5 (≈ 1.51 µM)	–	0.5 (≈ 1.51 µM)	≤ 0.12	0.5 (≈ 1.51 µM)	≤ 0.12	≤ 0.12	≤ 0.12	≤ 0.12	–	> 64
N=C(NC1CCCC1)c1ccc2[nH]c(-c3ccc(CCc4ccc(-c5nc6cc(C(=N)NC7CCCC7)ccc6[nH]5)cc4)cc3)nc2c1	1 (≈ 1.58 µM)	1 (≈ 1.58 µM)	4 (≈ 6.3 µM)	> 32	1 (≈ 1.58 µM)	2 (≈ 3.15 µM)	< 0.06	0.5 (≈ 0.788 µM)	0.12 (≈ 0.189 µM)	0.5 (≈ 0.788 µM)	0.25 (≈ 0.394 µM)	0.25 (≈ 0.394 µM)
CC(C)NC(=N)c1ccc2[nH]c(-c3ccc(CCc4ccc(-c5nc6cc(C(=N)NC(C)C)ccc6[nH]5)nc4)cc3)nc2c1	8 (≈ 13.7 µM)	4 (≈ 6.85 µM)	8 (≈ 13.7 µM)	32 (≈ 54.8 µM)	1 (≈ 1.71 µM)	2 (≈ 3.43 µM)	0.25 (≈ 0.428 µM)	0.5 (≈ 0.857 µM)	1 (≈ 1.71 µM)	4 (≈ 6.85 µM)	0.12 (≈ 0.206 µM)	1 (≈ 1.71 µM)
c1cc(-c2nc3cc(C4=NCCN4)ccc3[nH]2)ccc1CCc1ccc(-c2nc3cc(C4=NCCN4)ccc3[nH]2)cc1	> 64	> 64	> 64	> 64	> 64	> 64	> 64	> 64	> 64	> 64	> 64	> 64
CCC(C)NC(=N)c1ccc2[nH]c(-c3ccc(CCc4ccc(-c5nc6cc(C(=N)NC(C)CC)ccc6[nH]5)cc4)cc3)nc2c1 (stereo not given)	0.5 (≈ 0.819 µM)	1 (≈ 1.64 µM)	0.5 (≈ 0.819 µM)	2 (≈ 3.27 µM)	0.25 (≈ 0.409 µM)	2 (≈ 3.27 µM)	< 0.06	0.5 (≈ 0.819 µM)	0.12 (≈ 0.196 µM)	0.25 (≈ 0.409 µM)	0.12 (≈ 0.196 µM)	0.5 (≈ 0.819 µM)
CC(C)NC(=N)c1ccc2[nH]c(-c3ccc(CCc4ccc(-c5nc6ccccc6[nH]5)cc4)cc3)nc2c1	> 32	> 32	1 (≈ 2.01 µM)	> 32	> 32	> 32	4 (≈ 8.02 µM)	32 (≈ 64.2 µM)	8 (≈ 16 µM)	> 32	> 32	16 (≈ 32.1 µM)
CC(C)NC(=N)c1ccc2[nH]c(-c3ccc(CCc4ccc(-c5nc6cc(C(=N)NC(C)C)ccc6[nH]5)s4)cc3)nc2c1	0.5 (≈ 0.849 µM)	1 (≈ 1.7 µM)	0.25 (≈ 0.425 µM)	4 (≈ 6.79 µM)	0.5 (≈ 0.849 µM)	0.5 (≈ 0.849 µM)	0.12 (≈ 0.204 µM)	0.25 (≈ 0.425 µM)	0.12 (≈ 0.204 µM)	0.5 (≈ 0.849 µM)	–	–
CC(C)NC(=N)c1ccc2[nH]c(-c3ccc(CCc4ccc(-c5nc6cc(C(=N)NC(C)C)ccc6[nH]5)cn4)cc3)nc2c1	8 (≈ 13.7 µM)	16 (≈ 27.4 µM)	0.5 (≈ 0.857 µM)	16 (≈ 27.4 µM)	32 (≈ 54.8 µM)	4 (≈ 6.85 µM)	2 (≈ 3.43 µM)	8 (≈ 13.7 µM)	4 (≈ 6.85 µM)	8 (≈ 13.7 µM)	8 (≈ 13.7 µM)	16 (≈ 27.4 µM)
